Assay results as given in US7858597B2, “Preparation of formulations of angiotensin II AT1 receptors antagonists for the treatment of arterial hypertension, other cardiovascular illnesses and its complications” (Universidade Federal De Mimas Gerais - UFMG, priority 2001, dated 2010).
Where two headings read alike, the source gives them in different places.

Legend:
[1] = cited from earlier work
[2] = target: T1, ANGIOTENSIN II AT1 receptor (Homo sapiens, UniProt P30556); conditions: cited from earlier work
T1 sequence (P30556 1-359): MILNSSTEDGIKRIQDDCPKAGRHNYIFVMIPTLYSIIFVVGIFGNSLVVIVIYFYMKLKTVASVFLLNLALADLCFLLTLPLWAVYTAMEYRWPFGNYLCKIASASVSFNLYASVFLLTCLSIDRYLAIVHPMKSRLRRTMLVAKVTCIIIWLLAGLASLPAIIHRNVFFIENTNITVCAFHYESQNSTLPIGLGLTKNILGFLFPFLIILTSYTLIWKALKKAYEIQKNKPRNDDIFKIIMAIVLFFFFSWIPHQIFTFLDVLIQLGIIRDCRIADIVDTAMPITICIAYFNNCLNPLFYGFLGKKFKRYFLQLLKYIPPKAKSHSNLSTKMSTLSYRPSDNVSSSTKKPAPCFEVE

[3] = cited from earlier work; remark: listed apart in the source
pressor effect of Ang II [4] = experiment: Pressor effect of Ang II in rats after losartan or losartan included in cyclodextrin (gavage); assay type: in vivo; conditions: losartan 0.2 mg/Kg, tested 2, 6, 24 and 48 hours after
pressor effect of Ang II [5] = experiment: Pressor effect of Ang II in rats after subcutaneous losartan or losartan incorporated in biodegradable polymer (telemetric recording of arterial pressure); assay type: in vivo; conditions: losartan 0.7 mg
Description: Male rats weighing (330-350 g) instrumented for telemetric recording of arterial pressure (Data Science System) were anesthetized and submitted to the implantation of […] femoral vein. […] Injections of Ang II were made after 2, 8 and 24 hours and then at intervals of 24 hours, for 15 days.

[6] = cited from earlier work; remark: listed apart in the source
[7] = cited from earlier work; remark: listed apart in the source

Structure (SMILES): CCOc1nc2cccc(C(=O)O)c2n1Cc1ccc(-c2ccccc2-c2nnn[nH]2)cc1 [Candesartan]
- bioavailability ([1]; in vivo): about 40%
- half-life ([1]; in vivo): 9 h

Structure (SMILES): CCCCc1ncc(/C=C(\Cc2cccs2)C(=O)O)n1Cc1ccc(C(=O)O)cc1 [Eprosartan, (E)-a-[[2-butyl-1-[(4-carboxyphenyl)metyl]-1H-imidazol-5-yl]methylene]-2-thiofenepropanoic acid]
- eliminated through the feces ([1]; in vivo): Approximately 90%
- time to peak of maximum concentration ([1]; in vivo): about 2 hours
- binding / affinity for the Ang II AT1 receptor [2]: high affinity

Structure (SMILES): CCCCC1=NC2(CCCC2)C(=O)N1Cc1ccc(-c2ccccc2-c2nnn[nH]2)cc1 [Irbersartan]
- excreted by the bile ([1]; in vivo): 80%

Structure (SMILES): CCCCc1nc(Cl)c(CO)n1Cc1ccc(-c2ccccc2-c2nn[nH]n2)cc1 [Losartan]
- solubility ([3]; in alcohol): soluble
- solubility ([3]; in common organic solvents, such as acetonitrile and methyl-ethyl-cetone): slightly soluble
- solubility ([3]; in water): soluble
- half-life ([1]; in vivo): about two
- excreted as EXP-3174 ([1]; oral dose): 8%
- excreted with the losartan ([1]; oral dose): 5%
- duration of blockade of the pressor effect of Ang II (pressor effect of Ang II [4]): about 8 hours
- duration of blockade of the Ang II effect (pressor effect of Ang II [5]): about 8 hours

Structure (SMILES): CCOC(=O)[C@H](C)C[C@@H](C)C(=O)N1c2ccccc2C[C@H]1C(=O)O [Pentopril]
- stability in the human plasma [6]: highly stable

Structure (SMILES): CCCCc1nc(Cl)c(CC(=O)[O-])n1Cc1ccccc1Cl.[Na+] [S-8307]
- binding / affinity for the Ang II AT1 receptor [2]: weak binding

Structure (SMILES): CCCCc1nc(Cl)c(CC(=O)[O-])n1Cc1ccccc1[N+](=O)[O-].[Na+] [S-8308]
- binding / affinity for the Ang II AT1 receptor [2]: weak binding

Structure (SMILES): CCCc1nc2c(C)cc(-c3nc4ccccc4n3C)cc2n1Cc1ccc(-c2ccccc2C(=O)O)cc1 [Telmisartan]
- bioavailability ([1]; in vivo): 45%
- excreted by the bile ([1]; in vivo): 97%

Structure (SMILES): CCCCC(=O)N(Cc1ccc(-c2ccccc2-c2nnn[nH]2)cc1)[C@H](C(=O)O)C(C)C [Valsartan, 1-oxopentyl-N′[[2′-(1H-tetrazole-5-yl)[1,1′-biphenyl]-4-yl]methyl]-L-vaniline]
- half-life ([1]; in vivo): 9 h
- time to peak of maximum concentration ([1]; in vivo): about 2 hours

Structure (SMILES): CC[C@H](C)[C@H](NC(=O)[C@H](CCC(N)=O)NC(=O)[C@@H]1CCCN1C(=O)[C@H](CCCNC(=N)N)NC(=O)[C@@H]1CCCN1C(=O)[C@H](Cc1c[nH]c2ccccc12)NC(=O)[C@@H]1CCC(=O)N1)C(=O)N1CCC[C@H]1C(=O)N1CCC[C@H]1C(=O)O [teprotide]
- anti-hypertensive action ([7]; intravenous route): has an anti-hypertensive action
- anti-hypertensive action ([7]; oral route): inactive
